{"source": "patent US12005049B2", "about": "“Methods of preventing cancer metastasis” (MediciNova, Inc., priority 2021, dated 2024)", "key": {"[1]": {"details": "Sanftner et al Xenobiotica 2009; cited from earlier work"}, "Omm1.3 cells [2]": {"test_system": "Omm1.3 cells", "experiment": "Transwell migration assay", "type": "cell-based", "details": "HCM+UM-exo as chemoattractant, 24 hrs, 25 μM ibudilast, 10 μM diacerein, 1.0 μM reparixin, 0.25 μM crizotinib", "protocol": "FIG. 1A depicts trans-well migration assay results in which Omm1.3 cells were stimulated with hepatocyte conditioned media and uveal melanoma exosomes (HCM+UM-exo) in the presence of vehicle (DMSO), 10 μM diacerein, 1.0 μM reparixin, 0.25 μM crizotinib or 25 μM ibudilast.\nFIG. 1B depicts migrated cell count under the microscope from the trans-well migration assay, three fields for each condition. Experiments were repeated three times ±sd, p<0.001.\nExosome isolation. Exosomes were isolated from UM cell lines kept in serum-free media for 24 hrs. The media was collected and subjected to serial centrifugation steps starting with a spin at 3,000×g to remove dead cells and cell debris. The supernatant from this step is spun at 20,000×g to pellet microvesicles and large EVs. Lastly, the supernatant from this step is centrifuged at 100,000×g to pellet the exosome fraction.\nTranswell migration assay. The in vitro migration assays were performed with 5×104 Omm1.3 cells seeded in 500 μL serum-free medium on BioCoat Matrigel Invasion Chambers (BD Biosciences). The conditioned media of the hepatocytes treated or untreated with UM-exosome was used as chemoattractant in the lower chamber. The cells were also treated with vehicle (DMSO), 0.25 μM crizotinib or 25 μM ibudilast for 24 hrs. […] Images of stained cells were taken through a microscope and quantified by counting cells in triplicate samples."}, "GFP-Luc-Omm1.3 cells": {"test_system": "GFP-Luc-Omm1.3 cells", "experiment": "Metastatic uveal melanoma (UM) mouse model", "type": "in vivo", "details": "UM-exosome-educated mice, 7.5 mg/kg ibudilast i.p. daily", "protocol": "FIG. 2A depicts quantification of bioluminescence intensity for each mouse in the abdominal region, while excluding bioluminescence in the eyes, in an evaluation of ibudilast in a metastatic UM mouse model. […] FIG. 2B depicts representative images of H&E-stained mouse liver sections from the metastatic UM mouse model. Mice were injected intravenously with vehicle (PBS) or 10 μg UM-exosome isolated from […] in 100 μL PBS for 7 days. Subsequently, GFP-Luc-Omm1.3 cells were retro-orbitally injected in the mice as described in Surriga et al. (Mol. Cancer Ther., 2013, 12:2817-26). Ibudilast was dissolved to a concentration of 1 mg/ml in physiological saline containing 10% v/v of polyoxyethylene hydrogenated castor oil 60 (HCO60). A week later, the mice were treated daily with vehicle or 7.5 mg/kg ibudilast i.p. and monitored for the development of metastasis. […] The mice were monitored weekly for luminescence with luciferin (Gold Biotechnology). After 7 weeks the livers and lungs were collected and analyzed for luminescence. Experiments were carried out under an Institutional Animal Care and Use Committee—approved (IACUC) protocol, and Institutional guidelines for the proper and humane use of animals were followed. Statistical significance was determined by 2-sample Student t-test."}, "MP41 cells": {"test_system": "MP41 cells", "experiment": "Wound healing (scratch) assay, MP41", "type": "cell-based", "details": "exposed to HCM+UM-exo; data not shown", "protocol": "(§1) Wound healing assay. Omm1.3 and MP41 cells were scratched with a sterile 200 μL pipette tip. Cells were washed in PBS and replaced with fresh RPMI 1640 complete media, or hepatocyte conditioned media (HCM) pretreated with UM-exo. Images of the wounded area were recorded using an inverted phase-contrast microscope at the indicated time points."}, "Omm1.3 cells [3]": {"test_system": "Omm1.3 cells", "experiment": "Wound healing (scratch) assay, Omm1.3", "type": "cell-based", "details": "exposed to HCM+UM-exo, 25 μM ibudilast, 48 hours", "protocol": "as §1, with “FIG. 1C depicts Omm1.3 cells in scratch assays, in which after the scratch, the cells were incubated with control HCM or with HCM of hepatocytes exposed to UM-exosomes with or without 25 μM ibudilast. Pictures were taken at zero time-point or after 48 hours under a microscope at 10× magnification. Wound” for “Wound”"}, "MIF": {"test_system": "MIF", "experiment": "Plasma level of MIF", "details": "found by the inventors; no method given"}}}
{"compound": "CC(C)C(=O)c1c(C(C)C)nn2ccccc12", "note": "[ibudilast, 2-methyl-1-(2-(1-methylethyl)pyrazolo(1,5-a)pyridin-3-yl)1-propanone]", "values": [{"measurement": "CNS penetration", "setting": "[1]", "value": "good. CNS penetration"}, {"measurement": "UM cell migration toward UM-exosome-stimulated hepatocyte conditioned media (HCM)", "setting": "Omm1.3 cells [2]", "value": "dramatically inhibited cell migration"}, {"measurement": "metastatic spread (bioluminescence signal intensity in the abdominal region)", "setting": "GFP-Luc-Omm1.3 cells", "value": "showed inhibition of metastatic spread"}, {"measurement": "presence of cancer cell clusters in liver sections (H&E staining)", "setting": "GFP-Luc-Omm1.3 cells", "value": "not in the livers"}, {"measurement": "bioluminescence in lungs and livers at necropsy", "setting": "GFP-Luc-Omm1.3 cells; after 7 weeks", "value": "no bioluminescence signal in organs"}, {"measurement": "wound healing ability of UM cell line MP41", "setting": "MP41 cells", "value": "suppressed the wound healing ability"}, {"measurement": "wound healing ability of UM cell line Omm1.3", "setting": "Omm1.3 cells [3]", "value": "suppressed the wound healing ability"}, {"measurement": "plasma level of MIF", "setting": "MIF", "value": "lowers plasma level of MIF"}]}
